Measured values from patent US7138361B2, “Herbicidal heterocycles” (E. I. du Pont de Nemours and Company, priority 2000, dated 2006).

What was measured:
Assay type in all cases: in vivo
[1] = system: johnsongrass (Sorghum halepense); assay: Test C preemergence
In short: (§1)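 Each compound was dissolved in a non-phytotoxic solvent system containing a surfactant and sprayed either on freshly planted seeds (preemergence) or on young plants, 2 to 18 cm high (postemergence). Ratings after 12 to 14 greenhouse days ran from 0, no effect, to 100, complete control.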

[2] = system: corn (Zea mays); assay: Test C preemergence
In short: as §1

[3] = system: woolly cupgrass (Eriochloa villosa); assay: Test C preemergence
In short: as §1

[4] = system: bermudagrass (Cynodon dactylon); assay: Test C preemergence
In short: as §1

[5] = system: Sunflower; assay: Test C preemergence; settings: Rate 125 g/ha; scale 0 to 100, 0 no effect, 100 complete control
[6] = system: velvetleaf (Abutilon theophrasti); assay: Test C preemergence
In short: as §1

[7] = system: lambsquarters (Chenopodium album); assay: Test C preemergence
In short: as §1

[8] = system: yellow nutsedge (Cyperus esculentus); assay: Test C preemergence
In short: as §1

[9] = system: cocklebur (Xanthium strumarium); assay: Test C preemergence
In short: as §1

[10] = system: crabgrass (Digitaria sanguinalis); assay: Test C preemergence
In short: as §1

[11] = system: Nightshade; assay: Test C preemergence
[12] = system: Surinam grass (Brachiaria decumbens); assay: Test C preemergence
In short: as §1

[13] = system: pigweed (Amaranthus retroflexus); assay: Test C preemergence
In short: as §1

[14] = system: giant foxtail (Setaria faberii); assay: Test C preemergence
In short: as §1

[15] = system: kochia (Kochia scoparia); assay: Test C preemergence
In short: as §1

[16] = system: soybean (Glycine max); assay: Test C preemergence; settings: preemergence; Rate 250 g/ha; scale 0 to 100, 0 no effect, 100 complete control
In short: as §1

[17] = system: common ragweed (Ambrosia elatior); assay: Test C preemergence
In short: as §1

[18] = system: goosegrass (Eleusine indica); assay: Test C preemergence
In short: as §1

[19] = system: morningglory (Ipomoea hederacea); assay: Test C preemergence
In short: as §1

[20] = system: Sunflower; assay: Test C preemergence; settings: Rate 500 g/ha, visual evaluation after 12 to 14 days
[21] = system: rice (Oryza saliva); assay: Test C flooded paddy test; settings: for Rice plant response rating: Flooded Paddy, scale 0 to 100, 0 no effect, 100 complete control; for Plant response rating, Rice: flooded paddy test, scale 0 to 100 (0 no effect, 100 complete control)
In short: (§2)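 Greenhouse-maintained for 12 to 14 days after treatment, the paddy plants (2-leaf stage at application) were scored visually against controls. A score of 0 denotes no effect and a score of 100 denotes complete control.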

[22] = system: barnyardgrass (Echinochloa crus-galli); assay: Test C flooded paddy test; settings: for Barnyardgrass plant response rating: Flooded Paddy, scale 0 to 100, 0 no effect, 100 complete control; for Plant response rating, Barnyardgrass: flooded paddy test, scale 0 to 100 (0 no effect, 100 complete control)
In short: as §2

[23] = Rate 125 g/ha, scale 0 to 100, 0 no effect, 100 complete control
[24] = preemergence, Rate 62 g/ha, scale 0 to 100
[25] = preemergence, Rate 500 g/ha, visual evaluation after 12 to 14 days
[26] = preemergence, Rate 250 g/ha, scale 0 to 100, 0 no effect, 100 complete control

Structure (SMILES): CCOc1cccc(N2CCC(n3ccc(C(C)C)n3)C2=O)c1 (stereo not drawn) [Compound 128]
- Plant response rating, Johnsongrass [1, 23]: 90
- Plant response rating, Johnsongrass [1, 24]: 60
- Plant response rating (0 to 100), Johnsongrass [1, 25]: 100
- Plant response rating, Johnsongrass [1, 26]: 100
- Plant response rating, Corn [2, 23]: 20
- Plant response rating, Corn [2, 24]: 0
- Plant response rating (0 to 100), Corn [2, 25]: 60
- Plant response rating, Corn [2, 26]: 40
- Plant response rating, Cupgrass, Woolly [3, 23]: 100
- Plant response rating, Cupgrass, Woolly [3, 24]: 100
- Plant response rating (0 to 100), Cupgrass, Woolly [3, 25]: 100
- Plant response rating, Cupgrass, Woolly [3, 26]: 100
- Plant response rating, Bermudagrass [4, 23]: 100
- Plant response rating, Bermudagrass [4, 24]: 100
- Plant response rating (0 to 100 where 0 is no effect and 100 is complete control), Bermudagrass [4, 25]: 100
- Plant response rating, Bermudagrass [4, 26]: 100
- Plant response rating, Sunflower [5]: 100
- Plant response rating, Velvetleaf [6, 23]: 20
- Plant response rating, Velvetleaf [6, 24]: 10
- Plant response rating (0 to 100), Velvetleaf [6, 25]: 50
- Plant response rating, Velvetleaf [6, 26]: 30
- Plant response rating, Lambsquarters [7, 23]: 100
- Plant response rating, Lambsquarters [7, 24]: 100
- Plant response rating (0 to 100), Lambsquarters [7, 25]: 100
- Plant response rating, Lambsquarters [7, 26]: 100
- Plant response rating, Nutsedge [8, 23]: 70
- Plant response rating, Nutsedge [8, 24]: 20
- Plant response rating (0 to 100), Nutsedge [8, 25]: 100
- Plant response rating, Nutsedge [8, 26]: 100
- Plant response rating, Cocklebur [9, 23]: 10
- Plant response rating, Cocklebur [9, 24]: 0
- Plant response rating (0 to 100), Cocklebur [9, 25]: 70
- Plant response rating, Cocklebur [9, 26]: 40
- Plant response rating, Crabgrass [10, 23]: 100
- Plant response rating, Crabgrass [10, 24]: 100
- Plant response rating (0 to 100), Crabgrass [10, 25]: 100
- Plant response rating, Crabgrass [10, 26]: 100
- Plant response rating, Nightshade ([11]; Rate 62 g/ha, scale 0 to 100): 20
- Plant response rating, Nightshade [11, 23]: 40
- Plant response rating, Nightshade ([11]; Rate 250 g/ha, scale 0 to 100, 0 no effect, 100 complete control): 90
- Plant response rating, Surinam grass [12, 23]: 100
- Plant response rating, Surinam grass [12, 24]: 90
- Plant response rating (0 to 100), Surinam grass [12, 25]: 100
- Plant response rating, Surinam grass [12, 26]: 100
- Plant response rating, Pigweed [13, 23]: 70
- Plant response rating, Pigweed [13, 24]: 70
- Plant response rating (0 to 100), Pigweed [13, 25]: 100
- Plant response rating, Pigweed [13, 26]: 80
- Plant response rating, Foxtail, Giant [14, 23]: 90
- Plant response rating, Foxtail, Giant [14, 24]: 20
- Plant response rating (0 to 100), Foxtail, Giant [14, 25]: 100
- Plant response rating, Foxtail, Giant [14, 26]: 90
- Plant response rating, Kochia [15, 23]: 100
- Plant response rating, Kochia [15, 24]: 100
- Plant response rating (0 to 100), Kochia [15, 25]: 100
- Plant response rating, Kochia [15, 26]: 100
- Plant response rating, Soybean [16]: 60
- Plant response rating, Ragweed, Common [17, 23]: 100
- Plant response rating, Ragweed, Common [17, 24]: 100
- Plant response rating (0 to 100), Ragweed, Common [17, 25]: 100
- Plant response rating, Ragweed, Common [17, 26]: 100
- Plant response rating, Goosegrass [18, 23]: 100
- Plant response rating, Goosegrass [18, 24]: 100
- Plant response rating (0 to 100), Goosegrass [18, 25]: 100
- Plant response rating, Goosegrass [18, 26]: 100
- Plant response rating, Morningglory [19, 23]: 60
- Plant response rating, Morningglory [19, 24]: 30
- Plant response rating (0 to 100), Morningglory [19, 25]: 80
- Plant response rating, Morningglory [19, 26]: 70
- Plant response rating (0 to 100), Sunflower [20]: 100
- Rice plant response rating ([21]; Rate 250 g/ha): 30
- Rice plant response rating ([21]; Rate 500 g/ha): 70
- Plant response rating, Rice ([21]; Rate 62 g/ha): 0
- Plant response rating, Rice ([21]; Rate 125 g/ha): 30
- Barnyardgrass plant response rating ([22]; Rate 250 g/ha): 100
- Barnyardgrass plant response rating ([22]; Rate 500 g/ha): 100
- Plant response rating, Barnyardgrass ([22]; Rate 62 g/ha): 40
- Plant response rating, Barnyardgrass ([22]; Rate 125 g/ha): 100
